Assay results reported in the supplement of paper PMC11061612.

What was measured:
AZD5991 = compound: Cc1c2c(nn1C)CSCc1cc(n(C)n1)CSc1cc(c3ccccc3c1)OCCCc1c(C(=O)O)n(C)c3c-2c(Cl)ccc13 [AZD5991]; conditions: max 1 µM
Procedure, shortened: (§1)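 Plates with 1536 wells received cancer cell lines in 7.5 μl of DMEM/F12 or RPMI containing 10% FBS. After 24 hours at 37°C and 5% CO2, cells were dosed for 72 hours with final DMSO typically 0.2%, and viability was read by CellTiter-Glo 2.0 luminescence scaled between blank-well and DMSO-well means. The single-agent IC50 was taken from a logistic fit of the dose responses made with a non-linear mixed effects model, that logistic curve having two parameters.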

Alisertib = compound: COc1cc(Nc2ncc3c(n2)-c2ccc(Cl)cc2C(c2c(F)cccc2OC)=NC3)ccc1C(=O)O [Alisertib]; conditions: max 10 µM
Procedure, shortened: as §1

Taselisib = compound: Cc1nc(-c2cn3c(n2)-c2ccc(-c4cnn(C(C)(C)C(N)=O)c4)cc2OCC3)n(C(C)C)n1 [Taselisib]; conditions: max 10 µM
Procedure, shortened: as §1

AZD1390 = compound: CC(C)n1c(=O)n(C)c2cnc3cc(F)c(-c4ccc(OCCCN5CCCCC5)nc4)cc3c21 [AZD1390]; conditions: max 0.3 µM
Procedure, shortened: as §1

Prexasertib = compound: COc1cccc(OCCCN)c1-c1cc(Nc2cnc(C#N)cn2)n[nH]1 [Prexasertib]; conditions: max 1 µM
Procedure, shortened: as §1

AZD8186 = compound: C[C@@H](Nc1cc(F)cc(F)c1)c1cc(C(=O)N(C)C)cc2c(=O)cc(N3CCOCC3)oc12 [AZD8186]; conditions: max 10 µM
Procedure, shortened: as §1

Carboplatin = compound: C1CC(C1)(C(=O)[O-])C(=O)[O-].N.N.[Pt+2] [Carboplatin]; conditions: max 10 µM
Procedure, shortened: as §1

Venetoclax = compound: CC1(C)CCC(CN2CCN(c3ccc(C(=O)NS(=O)(=O)c4ccc(NCC5CCOCC5)c([N+](=O)[O-])c4)c(Oc4cnc5[nH]ccc5c4)c3)CC2)=C(c2ccc(Cl)cc2)C1 [Venetoclax]; conditions: max 1 µM
Procedure, shortened: as §1

Trametinib = compound: CC(=O)Nc1cccc(-n2c(=O)n(C3CC3)c(=O)c3c(Nc4ccc(I)cc4F)n(C)c(=O)c(C)c32)c1 [Trametinib]; conditions: max 1 µM
Procedure, shortened: as §1

AZD7648 = compound: Cc1cc2ncnn2cc1Nc1ncc2c(n1)n(C1CCOCC1)c(=O)n2C [AZD7648]; conditions: max 10 µM
Procedure, shortened: as §1

5-Fluorouracil = compound: O=c1[nH]cc(F)c(=O)[nH]1 [5-Fluorouracil]; conditions: max 20 µM
Procedure, shortened: as §1

[1] = compound: O=C(Nc1ccc2[nH]nc(-c3ccncc3)c2c1)[C@@H]1CCN(CC(=O)N2CCN(c3ccc(-c4ncccn4)cc3)CC2)C1; conditions: max 5 µM
Procedure, shortened: as §1

Gefitinib = compound: COc1cc2ncnc(Nc3ccc(F)c(Cl)c3)c2cc1OCCCN1CCOCC1 [Gefitinib]; conditions: max 10 µM
Procedure, shortened: as §1

Etoposide = compound: COc1cc([C@@H]2c3cc4c(cc3[C@@H](O[C@@H]3O[C@@H]5CO[C@@H](C)O[C@H]5[C@H](O)[C@H]3O)[C@H]3COC(=O)[C@H]23)OCO4)cc(OC)c1O [Etoposide]; conditions: max 10 µM
Procedure, shortened: as §1

MK-2206 = compound: NC1(c2ccc(-c3nc4ccn5c(=O)[nH]nc5c4cc3-c3ccccc3)cc2)CCC1 [MK-2206]; conditions: max 10 µM
Procedure, shortened: as §1

Crizotinib = compound: C[C@@H](Oc1cc(-c2cnn(C3CCNCC3)c2)cnc1N)c1c(Cl)ccc(F)c1Cl [Crizotinib]; conditions: max 10 µM
Procedure, shortened: as §1

AZD1775 = compound: C=CCn1c(=O)c2cnc(Nc3ccc(N4CCN(C)CC4)cc3)nc2n1-c1cccc(C(C)(C)O)n1 [AZD1775]; conditions: max 3 µM
Procedure, shortened: as §1

Savolitinib = compound: C[C@@H](c1ccc2nccn2c1)n1nnc2ncc(-c3cnn(C)c3)nc21 [Savolitinib]; conditions: max 1 µM
Procedure, shortened: as §1

AZD5153 = compound: COc1nnc2ccc(N3CCC(c4ccc(OCCN5CCN(C)C(=O)[C@H]5C)cc4)CC3)nn12 [AZD5153]; conditions: max 1 µM
Procedure, shortened: as §1

Selumetinib = compound: Cn1cnc2c(F)c(Nc3ccc(Br)cc3Cl)c(C(=O)NOCCO)cc21 [Selumetinib]; conditions: max 10 µM
Procedure, shortened: as §1

Olaparib = compound: O=C(c1cc(Cc2n[nH]c(=O)c3ccccc23)ccc1F)N1CCN(C(=O)C2CC2)CC1 [Olaparib]; conditions: max 10 µM
Procedure, shortened: as §1

AZD4320 = compound: CN(CC[C@H](CSC1=CC=CC=C1)NC2=C(C=C(C=C2)S(=O)(=O)NC(=O)C3=CC=C(C=C3)N4CCC(CC4)[C@H](C5=CC=CC=C5C6=CC=C(C=C6)Cl)O)S(=O)(=O)C(F)(F)F)CCO [AZD4320]; conditions: max 1 µM
Procedure, shortened: as §1

Gemcitabine = compound: Nc1ccn([C@@H]2O[C@H](CO)[C@@H](O)C2(F)F)c(=O)n1 [Gemcitabine]; conditions: max 0.3 µM
Procedure, shortened: as §1

AZD6738 = compound: C[C@@H]1COCCN1C2=NC(=NC(=C2)C3(CC3)[S@](=N)(=O)C)C4=C5C=CNC5=NC=C4 [AZD6738]; conditions: max 10 µM
Procedure, shortened: as §1

AZD5363 = compound: C1CN(CCC1(C(=O)N[C@@H](CCO)C2=CC=C(C=C2)Cl)N)C3=NC=NC4=C3C=CN4 [AZD5363]; conditions: max 10 µM
Procedure, shortened: as §1

Doxorubicin = compound: COc1cccc2c1C(=O)c1c(O)c3c(c(O)c1C2=O)C[C@@](O)(C(=O)CO)C[C@@H]3O[C@H]1C[C@H](N)[C@H](O)[C@H](C)O1 [Doxorubicin]; conditions: max 1 µM
Procedure, shortened: as §1

SRA737 = compound: N#Cc1cnc(Nc2cc(NC[C@H]3CNCCO3)c(C(F)(F)F)cn2)cn1 [SRA737]; conditions: max 10 µM
Procedure, shortened: as §1

Paclitaxel = compound: CC(=O)O[C@H]1C(=O)[C@@]2(C)[C@H]([C@H](OC(=O)c3ccccc3)[C@]3(O)C[C@H](OC(=O)[C@H](O)[C@@H](NC(=O)c4ccccc4)c4ccccc4)C(C)=C1C3(C)C)[C@]1(OC(C)=O)CO[C@@H]1C[C@@H]2O [Paclitaxel]; conditions: max 3 µM
Procedure, shortened: as §1

Lapatinib = compound: CS(=O)(=O)CCNCc1ccc(-c2ccc3ncnc(Nc4ccc(OCc5cccc(F)c5)c(Cl)c4)c3c2)o1 [Lapatinib]; conditions: max 10 µM
Procedure, shortened: as §1

AZD2811 = compound: CCN(CCO)CCCOc1ccc2c(Nc3cc(CC(=O)Nc4cccc(F)c4)[nH]n3)ncnc2c1 [AZD2811]; conditions: max 1 µM
Procedure, shortened: as §1

SN-38 = compound: CCc1c2c(nc3ccc(O)cc13)-c1cc3c(c(=O)n1C2)COC(=O)[C@]3(O)CC [SN-38]; conditions: max 0.3 µM
Procedure, shortened: as §1

AZD0156 = compound: CN(C)CCCOc1ccc(-c2ccc3ncc4c(c3c2)n(C2CCOCC2)c(=O)n4C)cn1 [AZD0156]; conditions: max 3 µM
Procedure, shortened: as §1

SG3199 = compound: CC1=CN2[C@@H](C1)C=NC3=CC(=C(C=C3C2=O)OC)OCCCCCOC4=C(C=C5C(=C4)N=C[C@@H]6CC(=CN6C5=O)C)OC [SG3199]; conditions: max 0.001 µM
Procedure, shortened: as §1

Dasatinib = compound: CC1=C(C(=CC=C1)Cl)NC(=O)C2=CN=C(S2)NC3=CC(=NC(=N3)C)N4CCN(CC4)CCO [Dasatinib]; conditions: max 2 µM
Procedure, shortened: as §1

Palbociclib = compound: CC(=O)c1c(C)c2cnc(Nc3ccc(N4CCNCC4)cn3)nc2n(C2CCCC2)c1=O [Palbociclib]; conditions: max 10 µM
Procedure, shortened: as §1

Cell Line	IC50, cell viability 72 h (AZD5991) [nM]	IC50, cell viability 72 h (Alisertib) [nM]	IC50, cell viability 72 h (Taselisib) [nM]	IC50, cell viability 72 h (AZD1390) [nM]	IC50, cell viability 72 h (Prexasertib) [nM]	IC50, cell viability 72 h (AZD8186) [nM]	IC50, cell viability 72 h (Carboplatin) [nM]	IC50, cell viability 72 h (Venetoclax) [nM]	IC50, cell viability 72 h (Trametinib) [nM]	IC50, cell viability 72 h (AZD7648) [nM]	IC50, cell viability 72 h (5-Fluorouracil) [nM]	IC50, cell viability 72 h [1] [nM]	IC50, cell viability 72 h (Gefitinib) [nM]	IC50, cell viability 72 h (Etoposide) [nM]	IC50, cell viability 72 h (MK-2206) [nM]	IC50, cell viability 72 h (Crizotinib) [nM]	IC50, cell viability 72 h (AZD1775) [nM]	IC50, cell viability 72 h (Savolitinib) [nM]	IC50, cell viability 72 h (AZD5153) [nM]	IC50, cell viability 72 h (Selumetinib) [nM]	IC50, cell viability 72 h (Olaparib) [nM]	IC50, cell viability 72 h (AZD4320) [nM]	IC50, cell viability 72 h (Gemcitabine) [nM]	IC50, cell viability 72 h (AZD6738) [nM]	IC50, cell viability 72 h (AZD5363) [nM]	IC50, cell viability 72 h (Doxorubicin) [nM]	IC50, cell viability 72 h (SRA737) [nM]	IC50, cell viability 72 h (Paclitaxel) [nM]	IC50, cell viability 72 h (Lapatinib) [nM]	IC50, cell viability 72 h (AZD2811) [nM]	IC50, cell viability 72 h (SN-38) [nM]	IC50, cell viability 72 h (AZD0156) [nM]	IC50, cell viability 72 h (SG3199) [nM]	IC50, cell viability 72 h (Dasatinib) [nM]	IC50, cell viability 72 h (Palbociclib) [nM]
LU-65 (Non-Small Cell Lung Carcinoma)	> 1000	> 10000	3010	> 300	89.6	> 10000	> 10000	> 1000	52.9	> 10000	> 20000	350	> 10000	> 10000	> 10000	7510	770	> 1000	> 1000	1650	> 10000	> 1000	> 300	3970	> 10000	341	4300	32.1	> 10000	> 1000	49.1	> 3000	> 1	> 2000	> 10000
MIA-PaCa-2 (Pancreatic Carcinoma)	> 1000	3490	> 10000	> 300	67.4	> 10000	> 10000	> 1000	150	> 10000	> 20000	2110	> 10000	2890	> 10000	> 10000	> 3000	> 1000	165	3370	> 10000	> 1000	101	8720	> 10000	183	> 10000	39.5	> 10000	> 1000	14.6	> 3000	> 1	> 2000	> 10000
MLMA (Other Blood Carcinomas)	> 1000	6310	982	> 300	2.19	2940	> 10000	272	> 1000	> 10000	> 20000	> 5000	> 10000	2200	1760	9930	144	> 1000	55.5	> 10000	> 10000	> 1000	22.8	4310	8830	116	934	13.7	> 10000	> 1000	16.3	> 3000	> 1	548	> 10000
